Several values for one entry are separate records, joined by “and”; a condition that tells them apart may be missing. Equal entries are not always repeated.
Assays:
rabbits = assay: Serum antibody titre by ELISA after immunisation of rabbits with the KHL-conjugated synthetic peptide; type: in vivo, rabbit; conditions: ELISA against corresponding synthetic peptide antigen; for Titre: (Serum Dilution) Post Immunization R1: rabbit R1, after the 10 week immunisation protocol; for Titre: (Serum Dilution) Pre Immunization R1: rabbit R1, before immunisation
Method: To each N-terminal end of the synthetic peptides, L-cysteine was attached, and the peptide was formed into a ring so that the cysteine group lay between the N-terminal and the C-terminal ends of the synthetic peptide. This facilitated peptide conjugation with Keyhole Hemolymph (KHL).
For immunisation, two young adult rabbits (5-6 months old, weighing 5-6 lbs [2.3-2.7 kg]) were used. Each antigen (i.e., each synthetic peptide) was given subcutaneously and intramuscularly in 0.1 ml injections at ten different sites. The protocol used followed the following sequence:
The level of antibodies in the serum was established by ELISA (enzyme-linked immunosorbent assay) with the corresponding synthetic peptide antigen. This technique involved the following steps:
1. The antigen was diluted with a 0.1 M bicarbonate buffer (pH 9.0) to yield a 10 μg of antigen/ml solution. A volume of 50 μl of this solution was placed into each microwell of a 96 well plate.
2. The plates were covered and incubated at 37° C. for 3 hours.
3. The wells were washed with a coupling buffer and blocked using 200 μl of Pierce standard solution of BSA (bovine serum albumin).
4. 50 μl of dilutent BSA (0.75% soln.) was pipetted into each well. 50 μl of antibody serum sample diluted 1:100 in dilutent BSA were placed in lane A of each row.
5. 1:2 serial dilutions were performed moving down the plate.
6. The plates were covered and incubated at room temperature for 60 minutes.
7. The plates were washed four times with PBS wash solution.
8. A volume of 50 μl of goat anti-rabbit IgG (H&L) HRP conjugate at 1:1000 dilution in BSA was pipetted into each well and incubated at room temperature for 60 minutes (H&L=heavy and light chain; HRP=horseradish peroxidase).
9. The plates were washed four times with PBS wash solution.
10. A volume of 50 μl of substrate solution 2,2′-azino-bis(3-ethylbenzothiazoline-6-sulfonic acid)-diammonium salt (ABTS available from Pierce, which is used to help visualise the extent of the antibody/antigen reaction) was pipetted into each well and incubated at room temperature for about 2 minutes.
11. The reaction was stopped by adding 50 μl of 1% SDS (sodium dodecyl sulfate) into each well.
12. The wells were then read on a dynoplate reader at 405.
The data presented in Table 3 show the serum antibody titers against specific antibodies after the 10 week immunisation protocol.

[1] = tested on: beta-amyloid precursor protein; assay: Ischemia-induced beta-amyloid precursor protein accumulation in rats, immunostaining with monoclonal antibodies; type: in vivo; design: Jonas C-terminal APP / Beringer- terminal APP / 511-608 APP ALZ 90 / Total: scale not given here; conditions: ischemic rats; for β-amyloid plaque level, overall result in words: summary of Table 4; for Jonas C-terminal APP: C-terminal end of precursor protein; for Total: sum of the three APP immunostaining levels
Description: Ischemia was induced in rats in order to encourage the development of the beta-amyloid precursor proteins. The rats were then subjected to a variety of treatment regimes, and the degree of the beta-amyloid precursor protein presence was investigated. The general technique is described in “Complete cerebral ischemia with short-term survival in rats induced by cardiac arrest. I. Extracellular accumulation of Alzheimer's β-amyloid protein precursor in the brain.”, Pluta, R. et al, Brain Research 649 (1994) 323-328.
The treatment regime varied in terms of the length of time ischemia was induced, and the length of time treatment was applied.
The Colostrinin was obtained by conventional techniques, as described, for example, in WO98/14473. The peptides were produced using the method described in Example 1. The control was not subjected to any treatment.
Each column represents the results if the immunostaining with specific monoclonal antibodies directed against fragments of amyloid or its N and C precursor protein.

[2] = β-amyloid plaque level, immunostaining

Substance	Titre: (Serum Dilution) Post Immunization R1 (rabbits)	Titre: (Serum Dilution) Pre Immunization R1 (rabbits)	β-amyloid plaque level, overall result in words [1]	Beringer- terminal APP ([1]; β-amyloid plaque level, N-terminal end of precursor protein, immunostaining)	Jonas C-terminal APP [1, 2]	Total [1]	511-608 APP ALZ 90 ([1]; β-amyloid plaque level, 511-608 position of precursor protein, immunostaining)
ESYVPLFP [Peptide 5]	25600	0	particularly good results	2 and 4	–	–	–
FLPVVN [Peptide 2]	12800	0	–	–	–	–	–
LLYQEPV [Peptide 6]	25600	0	–	–	–	–	–
LPLPLVRS [Peptide 10]	25600	0	–	–	–	–	–
PKLKVEVPEP [Peptide 4]	25600	0	–	–	–	–	–
PLPPTVMFPPQ [Peptide 8]	25600	0	–	–	–	–	–
PVLPVEPFPF [Peptide 3]	12800	0	particularly good results	–	1 and 2	–	–
PVVVPPFLQ [Peptide 9]	25600	0	–	–	3 and 2	8 and 5 and 6	–
QPKVLPVPQ [Peptide 7]	25600	0	–	–	3	11 and 10 and 9	4 and 5
QPLLQVMMEPQ [Peptide 1]	12800	0	particularly good results	–	1 and 2	–	–
